Experimental data as given in PubChem BioAssay AID248 (DTP/NCI, 2004).
Where “and” joins values, the source holds several entries; their conditions need not be identical. Equal values may be shown once. Inconclusive results and toxic doses are left out. No stated cut-off is given here; in the data, active means T/C of 150% or more; inactive means T/C below 125%.

Tested on: L1210 leukemia ip in BDF1 mice, survival T/C
Assay: NCI In Vivo Anticancer Drug Screen. Data for tumor model L1210 Leukemia (intraperitoneal) in B6D2F1 (BDF1) mice
Details: endpoint: mean survival time, higher = longer survival
Method in brief: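 Value reflects the ratio of survival in compound-treated mice to survival in vehicle-treated controls, with both groups carrying the same transplanted tumor.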

[1] = dose: 50.0 mg/kg/injection, schedule: Q01DX009 (ip), vehicle: saline
[2] = dose: 100.0 mg/kg/injection, schedule: Q01DX001 (ip), vehicle: saline
[3] = dose: 100.0 mg/kg/injection, schedule: Q01DX009 (ip), vehicle: saline
[4] = dose: 200.0 mg/kg/injection, schedule: Q01DX001 (ip), vehicle: saline
[5] = dose: 200.0 mg/kg/injection, schedule: Q01DX009 (ip), vehicle: saline
[6] = dose: 400.0 mg/kg/injection, schedule: Q01DX001 (ip), vehicle: saline
[7] = dose: 200.0 mg/kg/injection, schedule: Q04DX002 (ip), vehicle: saline
[8] = dose: 400.0 mg/kg/injection, schedule: Q04DX002 (ip), vehicle: saline
[9] = dose: 100.0 mg/kg/injection, schedule: Q01DX009 (ip), vehicle: Klucel (hydroxypropylcellulose) (HPC)
[10] = dose: 200.0 mg/kg/injection, schedule: Q01DX009 (ip), vehicle: Klucel (hydroxypropylcellulose) (HPC)
[11] = dose: 400.0 mg/kg/injection, schedule: Q01DX009 (ip), vehicle: Klucel (hydroxypropylcellulose) (HPC)
[12] = dose: 25.0 mg/kg/injection, schedule: Q04DX003 (ip), vehicle: saline
[13] = dose: 50.0 mg/kg/injection, schedule: Q04DX003 (ip), vehicle: saline
[14] = dose: 100.0 mg/kg/injection, schedule: Q04DX003 (ip), vehicle: saline
[15] = dose: 200.0 mg/kg/injection, schedule: Q04DX003 (ip), vehicle: saline
[16] = dose: 50.0 mg/kg/injection, schedule: Q01DX009 (ip), vehicle: saline with Tween-80
[17] = dose: 100.0 mg/kg/injection, schedule: Q01DX009 (ip), vehicle: saline with Tween-80
[18] = dose: 200.0 mg/kg/injection, schedule: Q01DX009 (ip), vehicle: saline with Tween-80
[19] = dose: 100.0 mg/kg/injection, schedule: Q04DX003 (ip), vehicle: Klucel (hydroxypropylcellulose) (HPC)
[20] = dose: 200.0 mg/kg/injection, schedule: Q04DX003 (ip), vehicle: Klucel (hydroxypropylcellulose) (HPC)
[21] = dose: 400.0 mg/kg/injection, schedule: Q04DX003 (ip), vehicle: Klucel (hydroxypropylcellulose) (HPC)
[22] = dose: 100.0 mg/kg/injection, schedule: Q01DX001 (ip), vehicle: carboxymethylcellulose (CMC)
[23] = dose: 200.0 mg/kg/injection, schedule: Q01DX001 (ip), vehicle: carboxymethylcellulose (CMC)
[24] = dose: 400.0 mg/kg/injection, schedule: Q01DX001 (ip), vehicle: carboxymethylcellulose (CMC)

Measured: T/C

Cc1cc2nc(/C(C#N)=C/c3cc(Cl)cc(Cl)c3O)[nH]c2cc1C
inactive: dose: 100.0 mg/kg/injection, schedule: Q01DX009 (ip), vehicle: other 93 % of control | dose: 200.0 mg/kg/injection, schedule: Q01DX009 (ip), vehicle: other 104 % of control | dose: 400.0 mg/kg/injection, schedule: Q01DX009 (ip), vehicle: other 93 % of control

Cc1nc(-c2ccc(N=Cc3ccc(N(CCCl)CCCl)cc3)cc2)cs1
inactive: [1] 101 % of control | [2] 101 % of control | [3] 104 % of control | [4] 90 % of control | [5] 98 % of control | [6] 89 % of control | dose: 400.0 mg/kg/injection, schedule: Q01DX009 (ip), vehicle: saline 102 % of control

O=C(CCCCCC(=O)NO)NO
inactive: dose: 100.0 mg/kg/injection, schedule: Q04DX002 (ip), vehicle: saline with Tween-80 93 % of control | dose: 100.0 mg/kg/injection, schedule: Q04DX002 (ip), vehicle: saline 100 % of control | dose: 200.0 mg/kg/injection, schedule: Q04DX002 (ip), vehicle: saline with Tween-80 97 % of control | [7] 93 % of control | dose: 400.0 mg/kg/injection, schedule: Q04DX002 (ip), vehicle: saline with Tween-80 97 % of control | [8] 93 % of control

Cc1ccc(S(=O)(=O)/N=S(/C)CC/S(C)=N/S(=O)(=O)c2ccc(C)cc2)cc1 (stereo not given)
inactive: [9] 102 % of control | [10] 105 % of control | [11] 100 % of control

NNC(=O)c1ccncc1
inactive: dose: 12.5 mg/kg/injection, schedule: Q01DX009 (ip), vehicle: saline 98 % of control | dose: 19.25 mg/kg/injection, schedule: Q01DX Z (ip), vehicle: carboxymethylcellulose (CMC) 103 % of control | dose: 25.0 mg/kg/injection, schedule: Q01DX009 (ip), vehicle: saline 107 % of control | [12] 108 % of control | dose: 38.5 mg/kg/injection, schedule: Q01DX Z (ip), vehicle: carboxymethylcellulose (CMC) 93 % of control | [1] 104 % of control | [13] 101 % of control | dose: 77.0 mg/kg/injection, schedule: Q01DX Z (ip), vehicle: carboxymethylcellulose (CMC) 106 % of control | [2] 98 % of control | [3] 100 % of control | [14] 101 % of control | dose: 154.0 mg/kg/injection, schedule: Q01DX Z (ip), vehicle: carboxymethylcellulose (CMC) 108 % of control | [15] 86 % of control

O=C1C(c2c[nH]c3ccccc23)=Nc2ccc(Br)cc21
inactive: dose: 50.0 mg/kg/injection, schedule: Q01DX001 (ip), vehicle: saline 104 % of control | [2] 104 % of control | [4] 106 % of control

CCCCCCCCCC(=O)N(CC)CC
inactive: [7] 111 % of control | [8] 92 % of control

O=[N+]([O-])c1ccc2c(ccn2C2OCC(O)C(O)C2O)c1 (stereo not given)
inactive: dose: 25.0 mg/kg/injection, schedule: Q01DX005 (ip), vehicle: saline 94 % of control and 96 % of control | dose: 50.0 mg/kg/injection, schedule: Q01DX005 (ip), vehicle: saline 96 % of control and 92 % of control | [16] 98 % of control | dose: 100.0 mg/kg/injection, schedule: Q01DX005 (ip), vehicle: saline 93 % of control and 91 % of control | [17] 98 % of control | [18] 102 % of control | dose: 400.0 mg/kg/injection, schedule: Q01DX009 (ip), vehicle: saline with Tween-80 111 % of control

CCCCCCCCCCCCCCCCOc1ccccn1
inactive: [9] 96 % of control | [19] 92 % of control | [10] 96 % of control | [20] 95 % of control | [11] 98 % of control | [21] 90 % of control

NC(N)=N/N=C/c1c(O)ccc2ccccc12
inactive: dose: 15.0 mg/kg/injection, schedule: Q01DX Z (ip), vehicle: saline 99 % of control | dose: 15.6 mg/kg/injection, schedule: Q01DX010 (oral), vehicle: saline 117 % of control | dose: 31.0 mg/kg/injection, schedule: Q01DX Z (ip), vehicle: saline 94 % of control | dose: 31.3 mg/kg/injection, schedule: Q01DX010 (oral), vehicle: saline 118 % of control | dose: 63.0 mg/kg/injection, schedule: Q01DX Z (ip), vehicle: saline 86 % of control

Cc1ccc(C(=O)C2CC2)cc1C
inactive: [16] 100 % of control | [17] 91 % of control | dose: 100.0 mg/kg/injection, schedule: Q04DX003 (ip), vehicle: saline with Tween-80 98 % of control | [18] 91 % of control | dose: 202.0 mg/kg/injection, schedule: Q04DX003 (ip), vehicle: saline with Tween-80 107 % of control

C/C(C/C=N/N=C(N)N)=N\N=C(N)N
inactive: dose: 15.0 mg/kg/injection, schedule: Q01DX Z (ip), vehicle: water 98 % of control | dose: 30.0 mg/kg/injection, schedule: Q01DX Z (ip), vehicle: water 96 % of control | dose: 60.0 mg/kg/injection, schedule: Q01DX Z (ip), vehicle: water 102 % of control | dose: 120.0 mg/kg/injection, schedule: Q01DX Z (ip), vehicle: water 102 % of control | dose: 120.0 mg/kg/injection, schedule: Q01DX Z (oral), vehicle: water 103 % of control | dose: 240.0 mg/kg/injection, schedule: Q01DX Z (oral), vehicle: water 100 % of control | dose: 480.0 mg/kg/injection, schedule: Q01DX Z (oral), vehicle: water 108 % of control | dose: 960.0 mg/kg/injection, schedule: Q01DX Z (oral), vehicle: water 102 % of control

NC(=S)N/N=C/c1ccco1
inactive: [12] 105 % of control | [13] 109 % of control | [2] 101 % of control | [19] 93 % of control | [14] 94 % of control and 100 % of control | [4] 104 % of control | [20] 96 % of control | [21] 103 % of control

C1CC2(CCN1)SSC1(CCNCC1)S2
inactive: [3] 113 % of control | [14] 114 % of control | [5] 103 % of control | [15] 112 % of control | dose: 400.0 mg/kg/injection, schedule: Q04DX003 (ip), vehicle: saline 96 % of control

Nc1cc(F)c2c(c1)C(=O)c1cc(F)ccc1-2
inactive: dose: 50.0 mg/kg/injection, schedule: Q01DX001 (ip), vehicle: carboxymethylcellulose (CMC) 93 % of control | dose: 50.0 mg/kg/injection, schedule: Q04DX003 (ip), vehicle: Klucel (hydroxypropylcellulose) (HPC) 96 % of control | [22] 95 % of control | [19] 96 % of control | [23] 95 % of control | [20] 98 % of control | [24] 95 % of control

CC(O)CN1c2ccccc2Sc2ccc(Cl)cc21 (stereo not given)
inactive: [22] 97 % of control | [23] 92 % of control | [24] 95 % of control

CCS(=O)(=O)/C=C(\C(=O)c1ccccc1)c1ccccc1
inactive: [9] 98 % of control | [10] 97 % of control | [11] 93 % of control

S=c1nc[nH]c2c1[nH]c(=S)n2CCc1cnc[nH]1
inactive: dose: 24.0 mg/kg/injection, schedule: Q01DX009 (ip), vehicle: steriod suspending solution 98 % of control | dose: 39.0 mg/kg/injection, schedule: Q01DX009 (ip), vehicle: steriod suspending solution 100 % of control | dose: 65.0 mg/kg/injection, schedule: Q01DX009 (ip), vehicle: steriod suspending solution 102 % of control | dose: 108.0 mg/kg/injection, schedule: Q01DX009 (ip), vehicle: steriod suspending solution 88 % of control | dose: 400.0 mg/kg/injection, schedule: Q01DX001 (ip), vehicle: steriod suspending solution 94 % of control

O=C(O)c1c(Br)c(Br)c(Br)c(Br)c1C(=O)Nc1cccc2c(O)cccc12
inactive: [9] 110 % of control | [10] 107 % of control | [11] 96 % of control

Cc1cc(=O)[nH]c(N2CCCCC2)n1
inactive: [2] 111 % of control | [4] 95 % of control | [6] 101 % of control

Nc1cc([N+](=O)[O-])ccc1Cl
inactive: [9] 99 % of control | [19] 102 % of control | [10] 101 % of control | [20] 102 % of control | [21] 103 % of control
